Measured values as given in patent publication US6214882A, “Benzenesulphonamide derivatives, preparation thereof and therapeutical uses thereof” (Synthelabo, priority 1995, dated 2001).

Experiments:
[1] = test system: arterial smooth muscles; assay: in vitro contraction of rabbit mesenteric artery rings; format: cell-based; settings: Oryctolagus cuniculus, read-out: arterial pD2 (converted)
Protocol: (§1) The in vitro activity of the compounds of the invention was studied on urethral and arterial smooth muscles.
(§2) These experiments were carried out on female New Zealand rabbits weighing from 3 to 3.5 kg. The animals were killed by vertebral dislocation, and rings of tissue were then removed from mesenteric arteries and from the urethra. These rings of tissue were immersed in a modified Krebs solution and oxygenated with a mixture of 95% O2 and 5% CO2. Each sample of tissue was subjected to a tension of 1 g, phenylephrine was then introduced at cumulative doses and the dose/response curve was established. After rinsing of the samples, the test compound was introduced at cumulative doses and the dose/response curve was established. The α1 -adrenergic effect of each compound is evaluated by calculating the pD2 (negative logarithm of the concentration of antagonist in the presence of which the effect of a dose of the agonist is divided by 2), as well as by the maximum effect representing the percentage of the maximum contraction obtained with phenylephrine (% Emax)

[2] = test system: urethral smooth muscles; assay: in vitro contraction of rabbit urethra rings; format: cell-based; settings: Oryctolagus cuniculus, read-out: urethral pD2 (converted)
Protocol: as §1, §2

CNC[C@H](O)c1cccc(O)c1 [phenylephrine]
EC50 [1]: 3.16 to 6.31 µM
EC50 [2]: 3.16 to 6.31 µM
